Laboratory results reported in EPA's CvTdb concentration-time database.

How the values were obtained:
Assay in all cases: concentration in plasma after dosing
Rat [1] = conditions: dosed: 4-methylimidazole, 10 mg/kg, iv, Male, Harlan Sprague Dawley
Rat [2] = conditions: dosed: 4-methylimidazole, 10 mg/kg, iv, Male, Harlan Sprague Dawley; remark: listed apart in the source
Rat [3] = conditions: dosed: 4-methylimidazole, 10 mg/kg, iv, Male, Harlan Sprague Dawley; remark: listed apart in the source
Rat [4] = conditions: 0.75 h; dosed: 4-methylimidazole; 10 mg/kg; iv; Male; Harlan Sprague Dawley
Rat [5] = conditions: dosed: 4-methylimidazole, 10 mg/kg, iv, Male, Harlan Sprague Dawley; remark: listed apart in the source
Rat [6] = conditions: dosed: 4-methylimidazole, 10 mg/kg, iv, Male, Harlan Sprague Dawley; remark: listed apart in the source
Rat [7] = conditions: dosed: 4-methylimidazole, 10 mg/kg, iv, Male, Harlan Sprague Dawley; remark: listed apart in the source
Rat [8] = conditions: 0.75 h; dosed: 4-methylimidazole; 10 mg/kg; iv; Male; Harlan Sprague Dawley; remark: listed apart in the source
Rat [9] = conditions: dosed: 4-methylimidazole, 10 mg/kg, iv, Male, Harlan Sprague Dawley; remark: listed apart in the source
Rat [10] = conditions: dosed: 4-methylimidazole, 10 mg/kg, iv, Male, Harlan Sprague Dawley; remark: listed apart in the source
Rat [11] = conditions: dosed: 4-methylimidazole, 10 mg/kg, iv, Male, Harlan Sprague Dawley; remark: listed apart in the source
Rat [12] = conditions: dosed: 4-methylimidazole, 10 mg/kg, iv, Male, Harlan Sprague Dawley; remark: listed apart in the source
Rat [13] = conditions: dosed: 4-methylimidazole, 10 mg/kg, iv, Male, Harlan Sprague Dawley; remark: listed apart in the source
Rat [14] = conditions: dosed: 4-methylimidazole, 10 mg/kg, iv, Female, Harlan Sprague Dawley
Rat [15] = conditions: dosed: 4-methylimidazole, 10 mg/kg, iv, Male, Harlan Sprague Dawley; remark: listed apart in the source
Rat [16] = conditions: dosed: 4-methylimidazole, 10 mg/kg, iv, Male, Harlan Sprague Dawley; remark: listed apart in the source
Rat [17] = conditions: 0.5 h; dosed: 4-methylimidazole; 10 mg/kg; iv; Male; Harlan Sprague Dawley
Rat [18] = conditions: dosed: 4-methylimidazole, 10 mg/kg, iv, Male, Harlan Sprague Dawley; remark: listed apart in the source
Rat [19] = conditions: dosed: 4-methylimidazole, 10 mg/kg, iv, Male, Harlan Sprague Dawley; remark: listed apart in the source
Rat [20] = conditions: dosed: 4-methylimidazole, 10 mg/kg, iv, Male, Harlan Sprague Dawley; remark: listed apart in the source
Rat [21] = conditions: dosed: 4-methylimidazole, 10 mg/kg, iv, Male, Harlan Sprague Dawley; remark: listed apart in the source
Rat [22] = conditions: dosed: 4-methylimidazole, 10 mg/kg, iv, Harlan Sprague Dawley
Rat [23] = conditions: dosed: 4-methylimidazole, 10 mg/kg, iv, Female, Harlan Sprague Dawley; remark: listed apart in the source
Rat [24] = conditions: 0.5 h; dosed: 4-methylimidazole; 10 mg/kg; iv; Male; Harlan Sprague Dawley; remark: listed apart in the source
Rat [25] = conditions: dosed: 4-methylimidazole, 10 mg/kg, iv, Male, Harlan Sprague Dawley; remark: listed apart in the source
Rat [26] = conditions: dosed: 4-methylimidazole, 10 mg/kg, iv, Male, Harlan Sprague Dawley; remark: listed apart in the source
Rat [27] = conditions: dosed: 4-methylimidazole, 10 mg/kg, iv, Male, Harlan Sprague Dawley; remark: listed apart in the source
Rat [28] = conditions: dosed: 4-methylimidazole, 10 mg/kg, iv, Male, Harlan Sprague Dawley; remark: listed apart in the source
Rat [29] = conditions: dosed: 4-methylimidazole, 10 mg/kg, iv, Male, Harlan Sprague Dawley; remark: listed apart in the source

**Q.** What does the source list for `Cc1cnc[nH]1` [4-methylimidazole]?
**A.** concentration in plasma (Rat [1]; 2 min): 12200 ng/mL; concentration in plasma (Rat [1]; 1 h): 4610 ng/mL; concentration in plasma (Rat [2]; 0.5 h): 5440 ng/mL; concentration in plasma (Rat [2]; 8 h): 88.2 ng/mL; concentration in plasma (Rat [3]; 20 min): 6930 ng/mL; concentration in plasma (Rat [3]; 4 h): 647 ng/mL; concentration in plasma (Rat [4]): 5440 ng/mL; concentration in plasma (Rat [5]; 10 min): 7910 ng/mL; concentration in plasma (Rat [5]; 4 h): 1720 ng/mL; concentration in plasma (Rat [6]; 2 min): 11800 ng/mL; concentration in plasma (Rat [6]; 0.75 h): 4780 ng/mL; concentration in plasma (Rat [7]; 20 min): 7340 ng/mL; concentration in plasma (Rat [7]; 6 h): 112 ng/mL; concentration in plasma (Rat [8]): 6160 ng/mL; concentration in plasma (Rat [9]; 0.5 h): 5280 ng/mL; concentration in plasma (Rat [9]; 6 h): 108 ng/mL; concentration in plasma (Rat [10]; 7 min): 8240 ng/mL; concentration in plasma (Rat [10]; 2 h): 3340 ng/mL; concentration in plasma (Rat [11]; 2 min): 10200 ng/mL; concentration in plasma (Rat [11]; 1 h): 4070 ng/mL; concentration in plasma (Rat [12]; 20 min): 5890 ng/mL; concentration in plasma (Rat [12]; 4 h): 960 ng/mL; concentration in plasma (Rat [13]; 10 min): 7840 ng/mL; concentration in plasma (Rat [13]; 4 h): 1490 ng/mL; concentration in plasma (Rat [14]; 2 min): 10500 ng/mL; concentration in plasma (Rat [14]; 1 h): 6380 ng/mL; concentration in plasma (Rat [15]; 0.75 h): 3040 ng/mL; concentration in plasma (Rat [15]; 8 h): 656 ng/mL; concentration in plasma (Rat [16]; 0.75 h): 5620 ng/mL; concentration in plasma (Rat [16]; 8 h): 74.3 ng/mL; concentration in plasma (Rat [17]): 5770 ng/mL; concentration in plasma (Rat [18]; 7 min): 7090 ng/mL; concentration in plasma (Rat [18]; 1 h): 4110 ng/mL; concentration in plasma (Rat [19]; 20 min): 6840 ng/mL; concentration in plasma (Rat [19]; 6 h): 116 ng/mL; concentration in plasma (Rat [20]; 10 min): 7010 ng/mL; concentration in plasma (Rat [20]; 2 h): 2460 ng/mL; concentration in plasma (Rat [21]; 10 min): 8520 ng/mL; concentration in plasma (Rat [21]; 4 h): 611 ng/mL; concentration in plasma (Rat [22]; 2 min, Male): 9350 ng/mL; concentration in plasma (Rat [22]; 7 min, Female): 8000 ng/mL; concentration in plasma (Rat [22]; 7 min, Male): 9000 ng/mL; concentration in plasma (Rat [22]; 10 min, Male): 8770 ng/mL; concentration in plasma (Rat [22]; 20 min, Male): 6950 ng/mL; concentration in plasma (Rat [22]; 0.5 h, Male): 7300 ng/mL; concentration in plasma (Rat [22]; 0.75 h, Male): 6210 ng/mL; concentration in plasma (Rat [22]; 1 h, Female): 4810 ng/mL; concentration in plasma (Rat [22]; 2 h, Male): 2060 ng/mL; concentration in plasma (Rat [22]; 4 h, Male): 690 ng/mL; concentration in plasma (Rat [22]; 6 h, Male): 454 ng/mL; concentration in plasma (Rat [22]; 8 h, Male): 205 ng/mL; concentration in plasma (Rat [23]; 2 min): 12000 ng/mL; concentration in plasma (Rat [23]; 1 h): 5190 ng/mL; concentration in plasma (Rat [24]): 5420 ng/mL; concentration in plasma (Rat [25]; 7 min): 8840 ng/mL; concentration in plasma (Rat [25]; 2 h): 2740 ng/mL; concentration in plasma (Rat [26]; 20 min): 6950 ng/mL; concentration in plasma (Rat [26]; 6 h): 148 ng/mL; concentration in plasma (Rat [27]; 0.5 h): 5620 ng/mL; concentration in plasma (Rat [27]; 6 h): 162 ng/mL; concentration in plasma (Rat [28]; 10 min): 6960 ng/mL; concentration in plasma (Rat [28]; 2 h): 3520 ng/mL; concentration in plasma (Rat [29]; 7 min): 8150 ng/mL; concentration in plasma (Rat [29]; 2 h): 2740 ng/mL
